Test results as given in ChEMBL document CHEMBL1649413, “Structure-activity relationship of 4(5)-aryl-2-amino-1H-imidazoles, N1-substituted 2-aminoimidazoles and imidazo[1,2-a]pyrimidinium salts as inhibitors of biofilm formation by Salmonella typhimurium and Pseudomonas aeruginosa” (J Med Chem, 2011).
pIC50: −log10 of the molar value. Activity calls are given as the source filed them. No cut-off for these calls is given here.

Columns and labels:
[1] = system: Salmonella typhimurium; assay: Antibiofilm activity in Salmonella Typhimurium ATCC 14028 assessed as inhibition of biofilm formation at 25 degC after 24 hrs; assay type: functional, organism-based, Salmonella enterica subsp. enterica serovar Typhimurium; conditions: Salmonella enterica, ATCC 14028, 24 h
[2] = system: Salmonella typhimurium; assay: Antimicrobial activity against Salmonella Typhimurium ATCC 14028 assessed as inhibition of planktonic growth at 40 uM at 25 degC after 24 hrs; assay type: functional, organism-based; conditions: Salmonella enterica subsp. enterica serovar Typhimurium
[3] = system: Salmonella typhimurium; assay: Antimicrobial activity against Salmonella Typhimurium ATCC 14028 assessed as inhibition of planktonic growth at 80 uM at 25 degC after 24 hrs; assay type: functional, organism-based; conditions: Salmonella enterica subsp. enterica serovar Typhimurium
[4] = system: Pseudomonas aeruginosa; assay: Antibiofilm activity in Pseudomonas aeruginosa assessed as inhibition of biofilm formation at 25 degC after 24 hrs; assay type: functional, organism-based
[5] = system: Pseudomonas aeruginosa; assay: Antimicrobial activity against Pseudomonas aeruginosa assessed as inhibition of planktonic growth at 40 uM at 25 degC after 24 hrs; assay type: functional, organism-based
[6] = system: Pseudomonas aeruginosa; assay: Antimicrobial activity against Pseudomonas aeruginosa assessed as inhibition of planktonic growth at 5 uM at 25 degC after 24 hrs; assay type: functional, organism-based
[7] = system: Pseudomonas aeruginosa; assay: Antimicrobial activity against Pseudomonas aeruginosa assessed as inhibition of planktonic growth at 80 uM at 25 degC after 24 hrs; assay type: functional, organism-based
[8] = system: Pseudomonas aeruginosa; assay: Antimicrobial activity against Pseudomonas aeruginosa assessed as inhibition of planktonic growth at 20 uM at 25 degC after 24 hrs; assay type: functional, organism-based
[9] = system: Salmonella typhimurium; assay: Antimicrobial activity against Salmonella Typhimurium ATCC 14028 assessed as inhibition of planktonic growth at 10 uM at 25 degC after 24 hrs; assay type: functional, organism-based; conditions: Salmonella enterica subsp. enterica serovar Typhimurium
[10] = system: Salmonella typhimurium; assay: Antimicrobial activity against Salmonella Typhimurium ATCC 14028 assessed as inhibition of planktonic growth at 20 uM at 25 degC after 24 hrs; assay type: functional, organism-based; conditions: Salmonella enterica subsp. enterica serovar Typhimurium
[11] = system: Salmonella typhimurium; assay: Antimicrobial activity against Salmonella Typhimurium ATCC 14028 assessed as inhibition of planktonic growth at 4 uM at 25 degC after 24 hrs; assay type: functional, organism-based; conditions: Salmonella enterica subsp. enterica serovar Typhimurium
[12] = system: Pseudomonas aeruginosa; assay: Antimicrobial activity against Pseudomonas aeruginosa assessed as inhibition of planktonic growth at 10 uM at 25 degC after 24 hrs; assay type: functional, organism-based
[13] = system: Salmonella typhimurium; assay: Antimicrobial activity against Salmonella Typhimurium ATCC 14028 assessed as inhibition of planktonic growth at 200 uM at 25 degC after 24 hrs; assay type: functional, organism-based; conditions: Salmonella enterica subsp. enterica serovar Typhimurium
[14] = system: Salmonella typhimurium; assay: Antibiofilm activity in Salmonella Typhimurium ATCC 14028 assessed as inhibition of biofilm formation at 37 degC after 24 hrs; assay type: functional, organism-based, Salmonella enterica subsp. enterica serovar Typhimurium; conditions: Salmonella enterica, ATCC 14028, 24 h
[15] = system: Pseudomonas aeruginosa; assay: Antibiofilm activity in Pseudomonas aeruginosa assessed as inhibition of biofilm formation at 37 degC after 24 hrs; assay type: functional, organism-based
[16] = system: Pseudomonas aeruginosa; assay: Antimicrobial activity against Pseudomonas aeruginosa assessed as inhibition of planktonic growth at 100 uM at 37 degC after 24 hrs; assay type: functional, organism-based
[17] = system: Pseudomonas aeruginosa; assay: Antimicrobial activity against Pseudomonas aeruginosa assessed as inhibition of planktonic growth at 40 uM at 37 degC after 24 hrs; assay type: functional, organism-based
[18] = system: Pseudomonas aeruginosa; assay: Antimicrobial activity against Pseudomonas aeruginosa assessed as inhibition of planktonic growth at 20 uM at 37 degC after 24 hrs; assay type: functional, organism-based
[19] = system: Salmonella typhimurium; assay: Antimicrobial activity against Salmonella Typhimurium ATCC 14028 assessed as inhibition of planktonic growth at 400 uM at 25 degC after 24 hrs; assay type: functional, organism-based; conditions: Salmonella enterica subsp. enterica serovar Typhimurium

Structure (SMILES) | pIC50 [1] | inhibition [2] | inhibition [3] | pIC50 [4] | inhibition [5] | inhibition [6] | inhibition [7] | inhibition [8] | inhibition [9] | inhibition [10] | inhibition [11] | inhibition [12] | inhibition [13] | pIC50 [14] | pIC50 [15] | inhibition [16] | inhibition [17] | inhibition [18] | inhibition [19]
CCCCCCCCn1c(-c2ccc([N+](=O)[O-])cc2)cnc1N | 4.45 | Active | Active |  |  |  |  |  |  |  |  |  |  |  |  |  |  |  | 
Nc1ncc(-c2ccccc2)n1C1CCCCC1 | 4.07 |  |  | 5.34 | inactive | inactive | inactive |  |  |  |  |  |  |  |  |  |  |  | 
Nc1ncc(-c2ccccc2)n1C1CCC1 | 3.93 |  |  | 4.70 | inactive |  | inactive | inactive |  |  |  |  |  |  |  |  |  |  | 
Nc1ncc(-c2ccccc2)n1C1CCCCCCCCCCC1 | 4.84 | inactive | inactive | < 3.10 |  |  |  |  | inactive |  |  |  |  |  |  |  |  |  | 
Nc1nc(-c2ccc(F)cc2)c(-c2ccc(F)cc2)[nH]1 | 4.74 | Active | Active |  |  |  |  |  | inactive | Active | inactive |  |  |  |  |  |  |  | 
CCCCCCCCCCCCn1c(-c2ccccc2)cnc1N | 5.15 |  |  | 4.89 | inactive |  | inactive |  | Active | Active | inactive | inactive |  |  |  |  |  |  | 
Nc1nc(-c2ccc(Cl)cc2)c(-c2ccc(C(F)(F)F)cc2)[nH]1 | 4.97 | Active | Active |  |  |  |  |  | Active | Active | inactive |  |  |  |  |  |  |  | 
CCCCCn1c(-c2ccc(Cl)cc2)cnc1N | 5.10 | Active |  | 5.22 |  | inactive |  | inactive | inactive | Active | inactive | inactive |  |  |  |  |  |  | 
CCCCCCCCCn1c(-c2ccc(-c3ccccc3)cc2)cnc1N | 4.79 | Active | Active | < 3.40 |  |  |  |  |  | inactive |  |  |  |  |  |  |  |  | 
Nc1nc(-c2ccccc2)c(-c2ccccc2)n1C1CCCCC1 | 4.62 | inactive | inactive | 5.30 | inactive |  |  | inactive | inactive | inactive |  |  |  |  |  |  |  |  | 
CCCCCCCCn1c(-c2ccc(SC)cc2)cnc1N | 5.17 |  |  | 5.55 |  | inactive |  | Active | Active |  | inactive | Active |  |  |  |  |  |  | 
CCCCCn1c(-c2ccccc2)cnc1N | 4.32 | inactive | Active | 5.68 | inactive | inactive | inactive |  | inactive | inactive | inactive | inactive |  |  |  |  |  |  | 
CCCCCCCCCn1c(-c2ccccc2)cnc1N | 5.22 |  |  | 5.08 |  | inactive |  | Active | Active | Active | inactive | inactive |  |  |  |  |  |  | 
CCCCCCCCn1c(-c2ccc(Cl)cc2)cnc1N | 5.23 |  |  | 5.40 |  | inactive |  | Active | Active | Active | Active | Active |  |  |  |  |  |  | 
Nc1ncc(-c2ccccc2)n1C1CCCCCCC1 | 4.39 |  | Active | 5.35 | inactive | inactive | inactive |  | inactive | inactive |  |  |  |  |  |  |  |  | 
Cc1ccc(-c2[nH]c(N)nc2-c2ccc(Cl)cc2)cc1 | 4.89 | Active | Active |  |  |  |  |  | Active | Active | inactive |  |  |  |  |  |  |  | 
Nc1ncc(-c2ccccc2)n1C1CCCCCC1 | 4.57 |  |  | 4.85 | inactive |  | inactive |  |  |  |  | inactive |  |  |  |  |  |  | 
Nc1ncc(-c2ccc(Cl)cc2)n1C1CCC1 | 4.94 | Active | Active | 5.22 | inactive | inactive | Active |  | inactive |  |  |  |  |  |  |  |  |  | 
Nc1ncc(-c2ccc(F)cc2)[nH]1 | 4.07 | Active |  | 4.82 | inactive |  |  |  |  |  | inactive | inactive | Active | 3.62 | 4.32 | inactive | inactive | inactive | 
CCCCCCCC[n+]1c(-c2cccc3ccccc23)cn2cccnc21.[O-][Cl+3]([O-])([O-])[O-] | 5.22 |  |  | 5.17 | Active | inactive |  | Active | Active |  | inactive | Active |  |  |  |  |  |  | 
CCCCCCCC[n+]1c(-c2ccc(-c3ccc([N+](=O)[O-])cc3)cc2)cn2cccnc21.[O-][Cl+3]([O-])([O-])[O-] | 5.82 |  |  | 6.00 | Active | Active |  | Active | Active |  | Active | Active |  |  |  |  |  |  | 
Nc1ncc(-c2ccc(-c3ccccc3)cc2)n1C1CCCC1 | 5.12 | Active | Active | 3.45 |  |  |  |  | inactive | Active | inactive |  |  |  |  |  |  |  | 
CCn1c(-c2ccc(-c3ccccc3)cc2)cnc1N | 4.85 | Active | Active | 4.02 |  |  |  |  | inactive | inactive | inactive |  |  |  |  |  |  |  | 
CCn1c(-c2ccc(Cl)cc2)cnc1N | 4.27 | Active | Active | 4.95 |  |  |  | inactive | inactive | inactive | inactive | inactive |  |  |  |  |  |  | 
CCCCCCCCCCn1c(-c2ccc(-c3ccccc3)cc2)cnc1N | 5.24 | inactive |  | < 3.40 | inactive | inactive | inactive |  |  | inactive | inactive |  |  |  |  |  |  |  | 
Nc1ncc(-c2ccc(Cl)cc2)[nH]1 | 4.80 | inactive |  | 5.46 |  | inactive |  |  |  |  | inactive |  |  | 4.52 | 4.53 |  |  | inactive | Active
CCCCCCCCCCCCCCn1c(-c2ccccc2)cnc1N | 5.06 | inactive | inactive | 5.01 | inactive |  | inactive |  | inactive | inactive |  | inactive |  |  |  |  |  |  | 
CCCCCCCn1c(-c2ccc(Cl)cc2)cnc1N | 5.02 |  |  | 5.59 |  | inactive |  |  | Active |  | inactive | Active |  |  |  |  |  |  | 
CCCCCCCCCCCCCCn1c(-c2ccc(Cl)cc2)cnc1N | 3.34 |  |  | 4.72 | inactive | inactive | inactive |  |  |  |  |  |  |  |  |  |  |  | 
